From US8952177B2 (Janssen Pharmaceutica NV, priority 2013, dated 2015)
pIC50: −log10 of the molar value. Where a name gives a salt, the structure may show the parent alone.

System: leukotriene pathway in human whole blood (LTB4)
Experiment: Human whole blood assay (LTB4 after calcium ionophore A23187 stimulation)
Assay type: cell-based
Settings: human whole blood diluted 1:1 in RPMI, 15 min pre-incubation, A23187 7 μg/mL for 30 min at 37° Celsius
Protocol: The ability of the compounds of the present invention to treat a FLAP-mediated disease and/or disorder, or associated symptoms or complications thereof, was determined using the following procedures. Binding assay data represent the average value obtained from two different assay plates, with samples run in duplicate on each plate. Human whole blood assay data represent a single replicate on an assay plate using whole blood from at least one healthy donor.
An in vitro cellular assay was performed using human whole blood collected in heparin-containing tubes, which was used to test the ability of compounds to modulate the leukotriene pathway in human whole blood. The blood was diluted 1:1 in RPMI medium, pre-incubated for 15 min at 37° Celsius with test compounds at various concentrations, and then stimulated with calcium ionophore, A23187 (7 μg/mL), for 30 min at 37° Celsius. The samples were then centrifuged and plasma was removed. The plasma was diluted in assay buffer and LTB4 levels were measured using a commercial kit (Enzo Life Sciences). The concentration of each compound that was required for half-maximal inhibition (modulation) of […] (IC50) was calculated by a 4-parameter equation using the program GraphPad Prism (GraphPad software). For analysis, data are imported into 3DX and aggregated as the average of duplicates of the calculated ratios in order to calculate Ki and IC50 values. Numbers in parentheses are the number of runs for the assay.

| pIC50 (Homo sapiens) | Structure (SMILES) | further results |
| --- | --- | --- |
|  | Cc1ccc(COc2ccc3nc(C4CCCC[C@@H]4C(=O)O)n(Cc4ccc(Br)cc4)c3c2)nc1 (mixture of isomers) [Example 1, racemic cis-2-{1-(4-Bromobenzyl)-6-[(5-methylpyridin-2-yl)methoxy]-1H-benzimidazol-2-yl}cyclohexanecarboxylic acid] | pIC50: 6.40 |
| 5.99 | Cc1ccc(COc2ccc3nc(C4CCCC[C@H]4C(=O)O)n(Cc4ccc(Br)c(F)c4)c3c2)nc1 (mixture of isomers) [Example 4, racemic cis-2-{1-(4-Bromo-3-fluorobenzyl)-6-[(5-methylpyridin-2-yl)methoxy]-1H-benzimidazol-2-yl}cyclohexanecarboxylic acid as the TFA salt] |  |
|  | Cc1ccc(COc2ccc3nc(C4CCCC[C@@H]4C(=O)O)n(Cc4ccc(Br)cc4)c3c2)nc1 (mixture of isomers) [Example 5, racemic trans-2-{1-(4-Bromobenzyl)-6-[(5-methylpyridin-2-yl)methoxy]-1H-benzimidazol-2-yl}cyclohexanecarboxylic acid as the TFA salt] | pIC50 (TFA salt): 5.86 |
| 6.42 | Cc1ccc(COc2ccc3nc(C4CCCC[C@H]4C(=O)O)n(Cc4ccc(Br)cc4F)c3c2)nc1 (mixture of isomers) [Example 10, racemic cis-2-{1-(4-Bromo-2-fluorobenzyl)-6-[(5-methylpyridin-2-yl)methoxy]-1H-benzimidazol-2-yl}cyclohexanecarboxylic acid] |  |
| 5.92 | Cc1ccc(COc2ccc3nc(C4CCCC[C@@H]4C(=O)O)n(Cc4ccc(Br)cc4F)c3c2)nc1 (mixture of isomers) [Example 13, racemic trans-2-{1-(4-Bromo-2-fluorobenzyl)-6-[(5-methylpyridin-2-yl)methoxy]-1H-benzimidazol-2-yl}cyclohexanecarboxylic acid] |  |
| 6.12 | Cc1ccc(COc2ccc3nc([C@H]4CCCC[C@H]4C(=O)O)n(Cc4ccc(OC(F)(F)F)c(F)c4)c3c2)nc1 (racemic) [Example 20, racemic cis-2-{1-[3-Fluoro-4-(trifluoromethoxy)benzyl]-6-[(5-methylpyridin-2-yl)methoxy]-1H-benzimidazol-2-yl}cyclohexanecarboxylic acid] |  |
| 6.13 | Cc1ccc(COc2ccc3nc([C@H]4CCCC[C@@H]4C(=O)O)n(Cc4ccc(OC(F)(F)F)cc4F)c3c2)nc1 (racemic) [Example 21, racemic trans-2-{1-[2-Fluoro-4-(trifluoromethoxy)benzyl]-6-[(5-methylpyridin-2-yl)methoxy]-1H-benzimidazol-2-yl}cyclohexanecarboxylic acid] |  |
| 5.51 | Cc1ccc(COc2ccc3nc([C@@H]4[C@H](C(=O)O)C4(C)C)n(Cc4ccc(OC(F)(F)F)cc4)c3c2)nc1 (racemic) [Example 25] |  |
| 6.25 | Cc1ccc(COc2ccc3nc([C@H]4CCCC[C@H]4C(=O)O)n(Cc4ccc(OC(F)(F)F)cc4F)c3c2)nc1 (racemic) [Example 26, racemic cis-2-{1-[2-Fluoro-4-(trifluoromethoxy)benzyl]-6-[(5-methylpyridin-2-yl)methoxy]-1H-benzimidazol-2-yl}cyclohexanecarboxylic acid] |  |
| 5.71 | Cc1ccc(COc2ccc3nc([C@@H]4CCCC[C@H]4C(=O)O)n(Cc4ccc(OC(F)(F)F)cc4)c3c2)nc1 (racemic) [Example 31, racemic trans-2-{6-[(5-Methylpyridin-2-yl)methoxy]-1-[4-(trifluoromethoxy)benzyl]-1H-benzimidazol-2-yl}cyclohexanecarboxylic acid] |  |
| 6.68 | Cc1ccc(COc2ccc3nc([C@H]4CCCC[C@H]4C(=O)O)n(Cc4ccc(OC(F)(F)F)c(Cl)c4)c3c2)nc1 (racemic) [Example 32, racemic cis-2-{1-[3-Chloro-4-(trifluoromethoxy)benzyl]-6-[(5-methylpyridin-2-yl)methoxy]-1H-benzimidazol-2-yl}cyclohexanecarboxylic acid] |  |
|  | Cn1ccc(COc2ccc3nc(C4CCCC[C@H]4C(=O)O)n(Cc4ccc(Br)cc4)c3c2)n1 (mixture of isomers) [Example 40, racemic cis-2-{1-(4-Bromobenzyl)-6-[(1-methyl-1H-pyrazol-3-yl)methoxy]-1H-benzimidazol-2-yl}cyclohexanecarboxylic acid as the TFA salt] | pIC50 (TFA salt): 6.33 |
|  | Cn1ccc(COc2ccc3nc(C4CCCC[C@H]4C(=O)O)n(Cc4ccc(Br)cc4)c3c2)n1 (mixture of isomers) [Example 41, racemic trans-2-{1-(4-Bromobenzyl)-6-[(1-methyl-1H-pyrazol-3-yl)methoxy]-1H-benzimidazol-2-yl}cyclohexanecarboxylic acid as the TFA salt] | pIC50 (TFA salt): 5.17 |
| 6.00 | Cn1ccc(COc2ccc3nc([C@H]4CCCC[C@H]4C(=O)O)n(Cc4ccc(OC(F)(F)F)cc4)c3c2)n1 (racemic) [Example 44, racemic cis-2-{6-[(1-Methyl-1H-pyrazol-3-yl)methoxy]-1-[4-(trifluoromethoxy)benzyl]-1H-benzimidazol-2-yl}cyclohexanecarboxylic acid] |  |
| 5.54 | Cn1ccc(COc2ccc3nc([C@H]4CCCC[C@@H]4C(=O)O)n(Cc4ccc(OC(F)(F)F)cc4)c3c2)n1 (racemic) [Example 54, racemic trans-2-{6-[(1-Methyl-1H-pyrazol-3-yl)methoxy]-1-[4-(trifluoromethoxy)benzyl]-1H-benzimidazol-2-yl}cyclohexanecarboxylic acid] |  |
| 5.48 | Cn1ccc(COc2ccc3nc([C@@H]4CCCC[C@@H]4C(=O)O)n(Cc4ccc(OC(F)(F)F)c(F)c4)c3c2)n1 (racemic) [Example 55, racemic cis-2-{1-[3-Fluoro-4-(trifluoromethoxy)benzyl]-6-[(1-methyl-1H-pyrazol-3-yl)methoxy]-1H-benzimidazol-2-yl}cyclohexanecarboxylic acid] |  |
| 6.72 | Cc1ccc(COc2cc(F)c3nc([C@@H]4CCCC[C@@H]4C(=O)O)n(Cc4ccc(Br)cc4)c3c2)nc1 (racemic) [Example 59, racemic cis-2-{1-(4-Bromobenzyl)-4-fluoro-6-[(5-methylpyridin-2-yl)methoxy]-1H-benzimidazol-2-yl}cyclohexanecarboxylic acid] |  |
| 6.01 | Cc1ccc(COc2cc(F)c3nc([C@H]4CCCC[C@@H]4C(=O)O)n(Cc4ccc(Br)cc4)c3c2)nc1 (racemic) [Example 62, racemic trans-2-{1-(4-Bromobenzyl)-4-fluoro-6-[(5-methylpyridin-2-yl)methoxy]-1H-benzimidazol-2-yl}cyclohexanecarboxylic acid] |  |
| 5.97 | Cc1ccc(COc2cc(F)c3nc(C4[C@H](C(=O)O)C4(C)C)n(Cc4ccc(Br)cc4)c3c2)nc1 (mixture of isomers) [Example 63, racemic cis-3-{1-(4-Bromobenzyl)-4-fluoro-6-[(5-methylpyridin-2-yl)methoxy]-1H-benzimidazol-2-yl}-2,2-dimethylcyclopropanecarboxylic acid] |  |
| 6.23 | Cc1ccc(COc2cc(F)c3nc(C4CCCC[C@H]4C(=O)O)n(Cc4ccc(OC(F)(F)F)cc4)c3c2)nc1 (mixture of isomers) [Example 66, racemic cis-2-{4-Fluoro-6-[(5-methylpyridin-2-yl)methoxy]-1-[4-(trifluoromethoxy)benzyl]-1H-benzimidazol-2-yl}cyclohexanecarboxylic acid as the TFA salt] |  |
| 5.97 | Cc1ccc(COc2cc(F)c3nc(C4CCCC[C@@H]4C(=O)O)n(Cc4ccc(OC(F)(F)F)cc4)c3c2)nc1 (mixture of isomers) [Example 67, racemic trans-2-{4-Fluoro-6-[(5-methylpyridin-2-yl)methoxy]-1-[4-(trifluoromethoxy)benzyl]-1H-benzimidazol-2-yl}cyclohexanecarboxylic acid as the TFA salt] |  |
| 6.37 | Cc1ccc(Cn2c(C3CCCC[C@H]3C(=O)O)nc3c(F)cc(OCc4ccc(C)cn4)cc32)cc1 (mixture of isomers) [Example 68, racemic cis-2-{4-Fluoro-1-(4-methylbenzyl)-6-[(5-methylpyridin-2-yl)methoxy]-1H-benzimidazol-2-yl}cyclohexanecarboxylic acid as the TFA salt] |  |
| 6.03 | Cc1ccc(Cn2c(C3CCCC[C@@H]3C(=O)O)nc3c(F)cc(OCc4ccc(C)cn4)cc32)cc1 (mixture of isomers) [Example 70, racemic trans-2-{4-Fluoro-1-(4-methylbenzyl)-6-[(5-methylpyridin-2-yl)methoxy]-1H-benzimidazol-2-yl}cyclohexanecarboxylic acid as the TFA salt] |  |
| 5.68 | Cc1ccc(COc2cc(F)c3nc(C4[C@H](C(=O)O)C4(C)C)n(Cc4ccc(OC(F)(F)F)cc4)c3c2)nc1 (mixture of isomers) [Example 74, racemic cis-3-{4-Fluoro-6-[(5-methylpyridin-2-yl)methoxy]-1-[4-(trifluoromethoxy)benzyl]-1H-benzimidazol-2-yl}-2,2-dimethylcyclopropanecarboxylic acid as the TFA salt] |  |
| 6.36 | Cc1ccc(COc2cc(Cl)c3nc(C4CCCC[C@H]4C(=O)O)n(Cc4ccc(Br)cc4)c3c2)nc1 (mixture of isomers) [Example 75, racemic cis-2-{1-(4-Bromobenzyl)-4-chloro-6-[(5-methylpyridin-2-yl)methoxy]-1H-benzimidazol-2-yl}cyclohexanecarboxylic acid] |  |
